Where two headings read alike, the source gives them in different places.
Test system: CLAUDIN 1
Conditions: human keratinocytes
Method: Cultures of human keratinocytes are treated with two concentrations of solutions, of the hexadecapeptide PuraMatrix™ (supplied by BD Science). The lower concentration, which is below the estimated critical aggregation concentration (CAC) at which the RADA-16I (SEQ ID NO:1) monomer self-assembles, while the higher concentration is above the CAC.

With RADARADARADARADA [PuraMatrix ™] the “CLDN1 LEVEL” value (High Concentration, above the CAC) was 1.39, the “CLDN1 LEVEL” value (Low Concentration, below the estimated critical aggregation concentration (CAC)) was 1.09 and the “CLAUDIN 1 regulation (in words)” value (higher concentration, above the estimated critical aggregation concentration) was “significantly upregulates”.

From patent US9241891B2, “Personal care compositions comprising self-assembling peptides” (The Procter & Gamble Company, priority 2012, dated 2016)
